# Data taken from patent publication US8946421B2, “Lipidated imidazoquinoline derivatives” (GlaxoSmithKline Biologicals S.A., priority 2008, dated 2015).
# Legend:
# Assay type in all cases: in vivo
# [1] = system: C57BL/6 (H2Kb), female mice; test: serum cytokine response after first injection; conditions: sera of mice 3 and 24 hrs after the first injection
# Method: Formulation of the compounds for a comparison study requires taking into account the different molecular weights of the core and lipidated molecules, (e.g. 45 and 4.5 μg of the lipidated compound L3 corresponds to approximately to 15 and 1.5 μg of the corresponding core compound, “L3 core”), allowing for the side by side comparison of the corresponding groups in the study. Higher doses of L3 (200 μg) and of L3 core (150 μg) are also tested. In one such study formulations summarized and described below (table 1) are used to vaccinate 6-8 week old C57BL/6 (H2Kb), female mice (10/group). The mice receive two injections 14 days apart and are bled during weeks 1, 3 and 4 (for precise bleed days see FIG. 1). The mice are vaccinated intramuscularly. A heterologous prime/boost using recombinant adenovirus coding for the SIV-p27 protein and adjuvanted p27 are used as control groups, the adenovirus is injected at a dose of 5×10^8 VP. The study design is represented in FIG. 1.
# Additional investigation illustrates the ability of lipidated TLR7/8 compounds to induce innate chemokines and pro-inflammatory cytokines among which type I IFN is known to be required for the programming of naïve CD8-T-cell (survival, differentiate and memory development). These cytokines are measured in the sera of mice 3 and 24 hrs after the first injection (FIGS. 5 and 6).
# [2] = system: C57BL/6 (H2Kb), female mice; test: p27-specific CD8 response, intracellular cytokine staining of PBLs after vaccination; conditions: 7 days after the second immunization; co-administered with MPL and QS-21 formulations; vs control formulation without TLR7/8L; intramuscular; FIG. 2
# Method: (§1) Formulation of the compounds for a comparison study requires taking into account the different molecular weights of the core and lipidated molecules, (e.g. 45 and 4.5 μg of the lipidated compound L3 corresponds to approximately to 15 and 1.5 μg of the corresponding core compound, “L3 core”), allowing for the side by side comparison of the corresponding groups in the study. Higher doses of L3 (200 μg) and of L3 core (150 μg) are also tested. In one such study formulations summarized and described below (table 1) are used to vaccinate 6-8 week old C57BL/6 (H2Kb), female mice (10/group). The mice receive two injections 14 days apart and are bled during weeks 1, 3 and 4 (for precise bleed days see FIG. 1). The mice are vaccinated intramuscularly. A heterologous prime/boost using recombinant adenovirus coding for the SIV-p27 protein and adjuvanted p27 are used as control groups, the adenovirus is injected at a dose of 5×10^8 VP. The study design is represented in FIG. 1. […]
# (§2) The induction of antigen-specific CD8 and CD4 responses is assessed by measuring intracellular cytokines 7 days after the second injection. […] The secretion of cytokines is blocked by Brefeldin A and the presence of 3 cytokines (IFNγ, TNFα and IL2) is evaluated by flow cytometry after intracellular staining with appropriate antibodies.
# [3] = system: C57BL/6 (H2Kb), female mice; test: antigen-specific CD4 T cell response, intracellular cytokine staining of PBLs after vaccination; conditions: liposome-based MPL and QS-21-containing formulation; vs control formulation; dose dependent; FIG. 4
# Method: as §1, §2
smiles,measurement,setting,value
"CCCCCCCCCCCCCCCC(=O)OC[C@H](COP(=O)(O)OCCn1c(COCC)nc2c(N)nc3ccccc3c21)OC(=O)CCCCCCCCCCCCCCC [Compound L3, 4-Amino-1-[2-(1,2-dipalmitoyl-sn-glycero-3-phospho)ethyl]-2-ethoxymethyl-1H-imidazo[4,5-c]quinoline]",IL-6 in serum,[1]; added to QS21 and MPL,enhanced
same,TNFα in serum,[1]; added to QS21 and MPL,enhanced
same,IL-12p70 production in serum,[1]; with QS21 and MPL,"Low IL-12p70 production, close to background level"
same,Level of INFγ in serum,[1]; with QS21 and MPL,increased at low dose
same,IFNα in serum,"[1]; with QS21 and MPL, FIGS. 5 and 6",in a dose-dependent manner and at higher level than for its core counterpart
same,p27-specific CD8 frequency,[2],clearly increased
same,p27-specific CD4 frequency,[3],increased
